{"source": "paper PMC7482845", "about": "“G10 is a direct activator of human STING” (PLoS ONE, 2020)", "key": {"[1]": {"molecular_target": "T1, R232 variant of human STING (THP-1-Dual KI-hSTING-R232 cells) (Homo sapiens, UniProt Q86WV6, H232R)", "T1 construct": "host or cells: THP-1-Dual KI-hSTING-R232", "T1 sequence (Q86WV6 whole entry H232R)": "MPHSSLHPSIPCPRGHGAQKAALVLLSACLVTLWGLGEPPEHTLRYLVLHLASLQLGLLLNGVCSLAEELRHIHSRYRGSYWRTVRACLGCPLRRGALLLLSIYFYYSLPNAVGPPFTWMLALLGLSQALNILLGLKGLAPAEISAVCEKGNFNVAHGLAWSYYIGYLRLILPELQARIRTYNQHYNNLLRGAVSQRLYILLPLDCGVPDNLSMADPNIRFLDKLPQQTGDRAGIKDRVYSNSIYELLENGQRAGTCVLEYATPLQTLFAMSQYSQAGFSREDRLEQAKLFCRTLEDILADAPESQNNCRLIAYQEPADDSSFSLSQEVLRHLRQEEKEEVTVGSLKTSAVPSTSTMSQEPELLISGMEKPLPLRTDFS", "assay": "Western blot of pSTING and pIRF3 in THP1-R232 knock in cells", "type": "cell-based", "settings": "immunoblot, 2 hours, R232 STING in HAQ knockout background", "experimental": "HEK293T cells were procured from ATCC. THP-1 and THP-1-Dual KI-hSTING-R232 cells which contained the R232 version of STING was knocked in to THP1 cells in which the HAQ version was ablated, were procured from Invivogen, CA, USA.\n(§1) 5 x 10^5 cells were seeded in 24-well plates in 500 μl growth medium and stimulated with novel compounds at 10μM. After 2 hours of treatment cells were harvested by centrifugation and cell pellets were lysed in RIPA buffer (20mM Tris-Cl, 150mM NaCl, 0.5mM EDTA, 1% NP40, 0.05% SDS) containing 1x phosphatase inhibitor cocktail 3 (Sigma) and 1x protease inhibitor (Roche) to extract the soluble fraction of protein. 10 μg of extracted protein was electrophoresed in 10% SDS-PAGE gels and transferred onto Immobilon-P membranes (Millipore). […] Anti-rabbit HRP label secondary antibody (Abcam) and Clarity Max™ western ECL substrate (Biorad—cat# 1705062) were used for visualization of bands using a BioRad XRS plus imager."}, "[2]": {"molecular_target": "T2, mSTING (wild type CT26 cells) (Mus musculus, UniProt Q3TBT3)", "T2 construct": "endogenous in cells; host or cells: CT26 (parent line, and the endogenous protein in R232.hSTING.CT26)", "assay": "Western blot of pSTING and pIRF3 in parent CT26 cells", "type": "cell-based", "settings": "immunoblot (S10 Fig)", "experimental": "as §1"}, "[3]": {"test_system": "immortalized human fibroblasts", "parameters": "method as in PMID 26646986", "settings": "cited from earlier work"}, "[4]": {"molecular_target": "T3, AQ variant of human STING (Homo sapiens, UniProt Q86WV6, G230A/R293Q)", "T3 construct": "expressed in transfected cells", "T3 sequence (Q86WV6 whole entry G230A/R293Q)": "as the sequence (Q86WV6 whole entry H232R) above, with G230A, R232H, R293Q counted along it", "assay": "Luciferase (ISRE.ISG reporter) assay in HEK293T cells stably expressing AQ hSTING", "type": "cell-based", "text": "• a) Stable STING expressing cells. Stable HEK293T STING-expressing cell lines were generated using plasmids purchased from Invivogen, CA, USA, that contain STING cDNA cloned into the pUNO-1 vector under the hEF1-HTLV promoter as well as the Blasticidin selection cassette. The human STING plasmids corresponding to the R232, H232 and HAQ variants were directly procured from Invivogen while the AQ and Q variants were created by mismatch PCR using cDNA from HAQ.STING and R232.STING variants respectively. These vectors were individually transfected into HEK293T cells using Lipofectamine (Invitrogen) and transfected cells were expanded under Blasticidin selection. These cells were further subjected to clonal selection using the limiting dilution method to obtain clonally pure populations of HEK293T cells expressing each of the five human STING variants. Clones with minimal ligand independent activation of STING were chosen for cellular experiments. • b) N-His R232.hSTING HEK293T cells. […]\n[…] clonally selected HEK293T-hSTING-Luciferase cells or control HEK293T-Luciferase cells were seeded in 384-well plates in growth medium and stimulated with known STING agonists or novel compounds. Supernatants were removed after 20 hours of treatment and secretory reporter gene activity was measured using the Quanti-Luc detection system (Invivogen) on a Spectramax i3X luminometer."}, "[5]": {"molecular_target": "T4, mSTING (CT26 cells overexpressing mSTING) (Mus musculus, UniProt Q3TBT3)", "T4 construct": "expressed in transfected cells; host or cells: CT26", "assay": "Western blot of pSTING and pIRF3 in CT26 cells overexpressing mSTING", "type": "cell-based", "settings": "immunoblot, 2 hours", "experimental": "as §1"}, "[6]": {"test_system": "human PBMCs and umbilical endothelial cells", "parameters": "method as in PMID 26646986", "settings": "cited from earlier work"}, "[7]": {"molecular_target": "T5, full length R232.hSTING (ER fraction of transfected HEK293T cells) (Homo sapiens, UniProt Q86WV6, H232R)", "T5 construct": "ER fraction (8mg/ml) containing full length STING from R232.hSTING; host or cells: ER fraction of R232.hSTING HEK293T cells", "T5 sequence (Q86WV6 whole entry H232R)": "as the sequence (Q86WV6 whole entry H232R) above", "assay": "In vitro kinase assay, ER fraction with full length R232 STING plus recombinant TBK1", "type": "biochemical", "settings": "cell free, immunoblot", "experimental": "This was followed by homogenization 3 times with a 30 sec each pulse and 1 min cooling between each pulse. Homogenates were centrifuged at 5000g for 10 min at 4 °C to remove nuclei, mitochondria and cell membrane from the cytosolic fraction. Supernatant was further centrifuged at 100000g for 1 h at 4 °C to fractionate the ER containing cytosolic fraction. The pellet thus obtained was resuspended in homogenization buffer and washed by centrifugation at 100000g twice. Post washing, the ER fraction containing pellet was resuspended in ER buffer (final composition: 20 mM Tris-HCl, 100 mM NaCl, 5 mM MgCl2, 5 mM MnCl2, 20 mM beta Glycerophosphate, 0.2 mM Na3VO4, 1X protease inhibitor cocktail (Roche), pH 7.5) using a syringe fitted with a 26G needle passing through it several times till homogeneity. The protein content of the ER homogenate was estimated by the BCA method and aliquots were stored at -80 °C for further use. […]"}}, "data": [{"smiles": "O=C(NCc1ccco1)c1ccc2c(c1)N(Cc1c(F)cccc1Cl)C(=O)CS2", "note": "[Compound G10, 4-(2-Chloro-6-fluorobenzyl)-N-(furan-2-ylmethyl)-3-oxo-3,4-dihydro-2H-benzo[b][1,4]thiazine-6-carboxamide]", "values": [{"measurement": "phosphorylation of STING and IRF3 in THP1-R232 cells", "setting": "[1]", "result": "led to phosphorylation of STING and IRF3"}, {"measurement": "phosphorylation of mSTING or mIRF3, parent CT26 line", "setting": "[2]", "result": "did not lead to phosphorylation"}, {"measurement": "activity in STING knockout fibroblasts", "setting": "[3]; STING knockout fibroblasts", "result": "inactive"}, {"measurement": "activation of the NFκB pathway in immortalized human fibroblasts", "setting": "[3]", "result": "did not activate"}, {"measurement": "activity against the AQ variant", "setting": "[4]", "result": "barely active"}, {"measurement": "phosphorylation of mSTING or mIRF3, CT26 cells overexpressing mSTING", "setting": "[5]", "result": "did not lead to phosphorylation"}, {"measurement": "induction of pro-inflammatory genes incl. NFκB pathway", "setting": "[6]", "result": "induced several pro-inflammatory genes"}, {"measurement": "formation of pSTING by TBK1, ER fraction with full length R232 STING", "setting": "[7]", "result": "activated"}]}]}
